# Source: patent US4389412A, “Substituted cyclopropanecarboxylic acid esters and pesticidal compositions containing the same as active ingredient” (priority 1979, dated 1983)
# Tests used:
# [1] = test system: green rice leafhoppers (Nephotettix cincticeps Uhler); assay: Utility Example-4: 0.2% dust on rice seedlings, green rice leafhoppers; type: in vivo; details: 5 kg per 10 ares, 24 hours, resistant to organophosphorus and carbamate pesticides
# Excerpt: (§1) A 0.2% dust preparation of each of the cis- and trans-isomers and a 50:50 mixture of the cis- and trans-isomers of Compound (1) and of Compound (2) as prepared by the procedure described in Formulation Example-3 was applied to rice seedlings by means of a bell-jar duster at the rate of 5 kg per 10 ares. […] In all cases, the mortality was not less than 90%.
# [2] = test system: tobacco cutworms (Prodenia litura Fabricius); assay: Mortality test with tobacco cutworms by topical application method; type: in vivo; details: 24 h
# Method: Mortality test with tobacco cutworms (Prodenia litura Fabricius) by topical application method
# Using a microsyringe, 0.5 μl of the above solution was dripped onto the thoracic adbominal region of each of 3-instar tobacco cutworm (Prodenia litura Fabricius) larvae. […] The test larvae were used in groups of 20 individuals each.
# [3] = Fish toxicity test with killifish; type: in vivo, Orizias latipes; details: water, killifish, 25±1° C., read-out: TLm (48 hrs.)
# Method: Fish toxicity test with killifish (Orizias latipes)
# An acetone solution of one of the test compounds as mentioned in Table 8 was prepared by adding said test compound to 15 ml of acetone. To 10 liters of water was added a predetermined amount of the above acetone solution and the mixture was stirred thoroughly to prepare an aqueous solution containing the test compound in a predetermined concentration. This was used as a test water. After the each test water was moderately aerated, ten killifishes (Orizias latipes) with a body weight of about 0.25 g and a body length of about 2.5 cm were released into said each test water which was maintained at 25±1° C. After 48 hours, the test fish was examined for death. The TLm (median tolerance limit, ppm) was determined.
# [4] = test system: two-spotted spider mites (Tetranychus urticae Koch); assay: Mortality test with two-spotted spider mites by spray application method; type: in vivo; details: 48 h, 200 ppm spray, two days, read-out: Percent decrease of population (%)
# Method: Mortality test with two-spotted spider mites (Tetranychus urticae Koch) by spray application method
# To a 5% aqueous solution of acetone was added dropwise a small amount of Tween-20 (polyethylene sorbitan monolaurate) as a surfactant. […] From 30 to 50 adult two-spotted spider mites (Tetranychus urticae Koch) were released on the leaves of kidney-bean plants in the dicotyledonous stage in a pot 9 cm in diameter, followed by a spray application of the above solution. The pot was kept in a constant-temperature chamber at 26° C. and two days later the mites were examined for deaths. The percent decrease of population was then calculated.
# [5] = test system: green rice leafhoppers (Nephotettix cincticeps); assay: Utility Example-6: 0.5% dust on rice seedlings, green rice leafhoppers; type: in vivo; details: 1 kg per 10 ares, 24 hours, resistant to organophosphorus and carbamate pesticides
# Excerpt: as §1, with “A 0.5%” for “A 0.2%”, “Formulation Example-4” for “Formulation Example-3”, “of 1” for “of 5”, “ares. Then, 30 green rice leafhoppers (Nephotettix cincticeps) resistant to organophosphorus and carbamate pesticides were released.” for “ares.”
# [6] = test system: rice stem borers (Chilo suppressalis Walker); assay: Mortality test with rice stem borers by topical application method; type: in vivo; details: 24 h
# Method: Mortality test with rice stem borers (Chilo suppressalis Walker) by topical application method
# Using a microsyringe, 0.5 μl of the above solution was applied to the thoracic abdominal region of each final-instar larva of rice stem borer (Chilo suppressalis Walker). […] The test larvae were used in groups of 20 individuals each.
# [7] = test system: brown planthoppers (Nilaparvata lugens); assay: Utility Example-7: 0.5% dust on rice seedlings, brown planthoppers; type: in vivo; details: 1 kg per 10 ares, 24 hours
# Excerpt: as §1, with “A 0.5%” for “A 0.2%”, “Formulation Example-4” for “Formulation Example-3”, “rice seedlings, on which 30 adult brown planthoppers (Nilaparvata lugens) were released,” for “rice seedlings”, “of 1” for “of 5”
# [8] = test system: green rice leafhoppers (Nephotettix cincticeps Uhler); assay: Utility Example-2: spray on rice plants, green rice leafhoppers; type: in vivo; details: 7 ml/pot, 24 hours
# Method: A 30% emulsifiable concentrate of each of the cis- and trans-isomers and a 50:50 mixture of the cis- and trans-isomers of Compound (1) and Compound (2) as prepared by the procedure described in Formulation Example-1 was diluted with water to a concentration of 80 ppm as active compound. Rice plants 4 weeks after sowing in pots (each pot 6 cm in diameter, 7 seedlings) were sprayed with the above solution at the rate of 7 ml/pot and, after drying in the air, each pot was covered with a wire-mesh cage. Then, 20 female adult green rice leafhoppers (Nephotettix cincticeps Uhler) were released into the cage. The caged pots were kept in a constant-temperature chamber at 25° C. […] In all groups, the mortality values were not less than 90%.
# [9] = test system: houseflies (Musca domestica); assay: Mortality test with houseflies by topical application method; details: 24 h
# [10] = test system: small brown planthoppers (Laodelphax striatellus Fallen); assay: Utility Example-3: spray on rice plants, small brown planthoppers; type: in vivo; details: 7 ml/pot, 24 hours
# Method: A 30% emulsifiable concentrate of each of the cis- and trans-isomers and a 50:50 mixture of the cis- and trans-isomers of Compound (1) and of Compound (2) as prepared by the procedure described in Formulation Example-1 was diluted with water to a concentration of 80 ppm as active compound. Rice plants 4 weeks after sowing in pots (each pot 6 cm in diameter, 7 seedlings) were sprayed with the above diluted solution at the rate of 7 ml/pot and, after drying in the air, each pot was covered with a wire-mesh cage. Then, 30 adult small brown planthoppers (Laodelphax striatellus Fallen) were released into the cage. The pots were kept in a constant-temperature chamber at 25° C. […] In all groups, the mortality was not less than 90%.
# carp and water flea = assay: Fish toxicity ranking according to Japanese regulations; parameters: species or system Cyprinus carpio L; Daphnia pulex; details: from TLm for carp and water flea
# Method: The above ranking with symbols A, B and C were determined according to Japanese regulations relative to application of agricultural chemicals, and these symbols are defined as follows: […]
# A: TLm (48 hrs.) value >10 ppm for carp and TLm (3 hrs.) value >0.5 ppm for water flea, wherein toxicity to fishes is not observed by usual application.
# B: TLm (48 hrs.) value 10-0.5 ppm for carp; or TLm (48 hrs.) value >10 ppm for carp and TLm (3 hrs.) value <0.5 ppm for water flea, wherein appreciable toxicity to fishes is not observed by usual application but may be observed when applied to wide area at one time.
# C: TLm (48 hrs.) value <0.5 ppm for carp, wherein toxicity to fishes is so strongly observed by usual application that both the application method and application area are strictly restricted.
# [11] = Toxicity test with water-fleas; type: in vivo, Daphnia pulex; details: water, 25±1° C., read-out: TLm, Water-flea (6 hrs.)
# Method: Toxicity test with water-fleas (Daphnia pulex)
# An acetone solution of one of the test compounds as mentioned in Table 10 and Tween-20 (the same surfactant as mentioned hereinbefore) was prepared. To 100 ml of water in a high-walled dish (9 cm in diameter, 7 cm deep) was added the above acetone solution. The mixture was stirred thoroughly to prepare an aqueous solution containing the test compound in a predetermined concentration. This was used as a test water. Twenty water-fleas (Daphnia pulex) were released into each test water which was maintained at 25±1° C. After 6 hours, the water-fleas were examined for deaths. The TLm (median tolerance limit, ppm) was determined.
# [12] = Fish toxicity test with carp; type: in vivo, Cyprinus carpio L; details: carp, water, 48 hrs., 21±1° C.; read-out: TLm, Carp (48 hrs.)
# Method: Fish toxicity test with carp (Cyprinus carpio L)
# An acetone solution of one of the test compounds as mentioned in Table 10 and Tween-20 (the same surfactant as mentioned hereinbefore) was prepared. To 50 liters of water (30 cm deep) in a glass tank was added the above acetone solution. The mixture was stirred thoroughly to prepare an aqueous solution containing the test compound in a predetermined concentration. This was used as a test water. Five carps (Cyprinus carpio L) with a body weight of about 6 g and a body length of about 6 cm were released into each test water which was maintained at 21±1° C. After 48 hours, the test fish was examined for death. The TLm (median tolerance limit, ppm) was determined. The test water was moderately aerated.
# [13] = Fish toxicity safety factor (TLm divided by maximum concentration in cover water); parameters: species or system carp; details: in vivo, TLm / maximum concentration in cover water at LC50 application (100 l per 10 ares, 5 cm depth)
# Method: To further confirm the low toxicity to fish and high pesticidal activity of Compounds (1) and (2) according to this invention as evidenced by the fish toxicity tests with carps and the above tests, fish toxicity safety factors were calculated from the fish toxicity and pesticidal test data. These fish toxicity safety factors are indicators of safety to fish inhabiting a paddy field to which Compounds (1) and (2) may be actually applied for pest control purposes.
# It is first assumed that such a pesticidal solution would normally be applied at the rate of 100 l per 10 ares of paddy field. It is also assumed that a solution (100 l) corresponding to the LC50 of the compounds would be applied to 10 ares of a paddy field carrying a cover water with a depth of 5 cm above ground surface and that all the solution would then find its way into the cover water. The expected maximum concentration of the compound in the cover water is then calculated. The fish toxicity safety factor of a pesticidal compound is defined as the value obtained by dividing the TLm (ppm) of the particular compound by the maximum concentration of the compound in cover water. The meaning of the value of the fish toxicity safety factor being one (1) is that the maximum concentration of the particular compound in cover water corresponds to the TLm of said compound. It is understood that when the pesticidal compound having a fish toxicity safety factor value of less than one (1) is applied to a paddy field, it has a risk of destroying the fish inhabiting there, and that the higher the safety factor value, the higher is the safety of the compound to fish.
# This fish toxicity safety factor will now be explained in further detailed by taking the trans-isomer of Compound (2) of this invention as an example.
# On the other hand, the toxicity to fish of this compound is TLm >10 ppm. Therefore, by dividing the TLm (i.e. >10 ppm) by the above cover water maximum concentration (i.e. 0.36 ppm), we obtain a fish toxicity safety factor of >28. Thus, the concentration of the trans-isomerof Compound (2) which kills 50% of pests corresponds to less than 1/28 of the concentration of the same isomer which kills 50% of fish. In other words, this means that the trans-isomer of Compound (2) is extremely safe to fish.
# [14] = test system: brown planthoppers (Nilaparvata lugens Stal); assay: Utility Example-1: LC50 on adult brown planthoppers on dipped rice plants; type: in vivo; details: Nilaparvata lugens, 24 h, 25° C., read-out: Pesticidal activity LC50
# Method: A 1% emulsifiable concentrate of each test compound as prepared by the procedure described in Formulation Example 2 was diluted with water to prepare a test solution of predetermined concentration.
# Rice plants, 4 weeks after sowing (cultivated in a pot 6 cm in diameter, 7 seedlings) were dipped in the above solution and after allowing them to dry in the air, the pot was covered with a wire-mesh cage. Then, 30 adult brown planthoppers (Nilaparvata lugens Stal) were released into the cage and the pot was kept in a constant-temperature chamber at 25° C.
SMILES,mortality [1],mortality at 0.0001 mg [2] [%],LC50 at 48 h [3] [µg/mL],mortality at 200 ppm [4] [%],mortality [5],mortality at 1 µg/larva [6] [%],mortality at 10 µg/larva [6] [%],mortality [7],mortality at 80 ppm [8] [%],mortality at 0.5 µg/female [9] [%],mortality at 1 µg/female [9] [%],mortality at 80 ppm [10] [%],Ranking (carp and water flea),LC50 at 6 h [11] [µg/mL],LC50 at 48 h [12] [µg/mL],selectivity ratio [13],LC50 [14] [µg/mL]
"CC1(C)[C@H](C=C(Cl)Cl)[C@@H]1C(=O)OCc1cccc(Oc2ccc(Cl)cc2)c1 (relative stereo) [Compound (1) cis-, 3-(4-chlorophenoxy)benzyl cis-2,2-dimethyl-3-(2,2-dichlorovinyl)cyclopropanecarboxylate]",not less than 90%,100,> 10,100,not less than 90%,100,100,not less than 90%,≥ 90,100,100,≥ 90,,,,,
CC1(C)[C@H](C=C(Cl)Cl)[C@H]1C(=O)OC(C#N)c1cccc(Oc2ccc(Cl)cc2)c1 (relative stereo) [Compound (G) trans-],,,,,,85,100,,,,,,"C (TLm (48 hrs.) value <0.5 ppm for carp, wherein toxicity to fishes is so strongly observed by usual application that both the application method and application area are strictly restricted.)",1.7,0.09,0.12,380
CC1(C)[C@H](C(=O)OC(C#N)c2cccc(Oc3ccc(Cl)cc3)c2)[C@@H]1C=C(Cl)Cl (relative stereo) [Compound (G) cis-],,,,,,40,100,,,,,,"C (TLm (48 hrs.) value <0.5 ppm for carp, wherein toxicity to fishes is so strongly observed by usual application that both the application method and application area are strictly restricted.)",5,0.013,0.01,620
